Source: US20090143438A1, “Novel Pyridine Derivative Having Anti-Helicobacter Pylori Activity” (Arigen Pharmaceuticals, Inc., priority 2006, published 2009)
≈ marks a conversion by molar mass, not a printed value.

Tests used:
[1] = test system: Helicobacter pylori NCTC11916; settings: standard strain NCTC11916; data from Table 6 of JP-A No. 7-69888; cited from earlier work
[2] = test system: Helicobacter pylori NCTC11637; settings: standard strain NCTC11637; data from Table 6 of JP-A No. 7-69888; cited from earlier work
H. pylori, ATCC 43504 = assay: Antibacterial power test, Columbia agar, MIC; type: cell-based, Helicobacter pylori; settings: Helicobacter pylori, ATCC43504, 72 h, 37° C., pH 7.0, 3 days, read on 4th day, read-out: MIC, in vitro anti-Helicobacter pylori activity
Description: An in vitro test was performed in a Columbia agar medium using a standard strain of H. pylori, ATCC 43504. […] Each of the test objects was dissolved in a 1% DMSO solution. Furthermore, as antibiotic control drugs, ampicillin from the penicillin family (control drug 1), gentamycin from the aminoglycoside family (control drug 2), tetracycline from the tetracycline family (control drug 3), and ofloxacin from the new quinolone family (control drug 4) were used.

Row | MIC (H. pylori, ATCC 43504) | SMILES | MIC [1] | MIC [2]
1 |  | COc1ccc2[nH]c([S+]([O-])Cc3ncc(C)c(OC)c3C)nc2c1 (stereo not shown) [(a), 5-methoxy-2-(4-methoxy-3,5-dimethylpyridin-2-yl)methylsulfinyl-1H-benzimidazole] | 50 µg/mL (≈ 145 µM) | 50 µg/mL (≈ 145 µM)
2 |  | COc1ccc2[nH]c(SCc3ncc(C)c(OC)c3C)nc2c1 [(b), 5-methoxy-2-(4-methoxy-3,5-dimethylpyridin-2-yl)methylthio-1H-benzimidazole] | 12.5 µg/mL (≈ 37.9 µM) | 12.5 µg/mL (≈ 37.9 µM)
3 |  | Cc1c(OCC(F)(F)F)ccnc1C[S+]([O-])c1nc2ccccc2[nH]1 (stereo not shown) [(c), 2-[3-methyl-4-(2,2,2-trifluoroethoxy)pyridine-2-yl]methylsulfinyl-1H-benzimidazole] | 12.5 µg/mL (≈ 33.8 µM) | 6.25 µg/mL (≈ 16.9 µM)
4 |  | Cc1c(OCC(F)(F)F)ccnc1CSc1nc2ccccc2[nH]1 [(d), 2-[3-methyl-4-(2,2,2-trifluoroethoxy)pyridine-2-yl]methylthio-1H-benzimidazole] | 1.56 µg/mL (≈ 4.41 µM) | 1.56 µg/mL (≈ 4.41 µM)
5 |  | COCCCOc1ccnc(C[S+]([O-])c2nc3ccccc3[nH]2)c1C.[Na] (stereo not shown) [(e), 2-[4-(3-methoxypropoxy)-3-methylpyridin-2-yl]methylsulfinyl-1H-benzimidazole sodium salt] | 1.56 µg/mL | 0.8 µg/mL
6 |  | COCCCOc1ccnc(CSc2nc3ccccc3[nH]2)c1C [(f), 2-[4-(3-methoxypropoxy)-3-methylpyridin-2-yl]methylthio-1H-benzimidazole] | 1.56 µg/mL (≈ 4.54 µM) | 0.8 µg/mL (≈ 2.33 µM)
7 | 10 µg/mL (≈ 31.7 µM) | Cc1c(OCCO)ccnc1CSc1nc2ccccc2[nH]1 [Comparative Compound 1, 2-[{4-(2-hydroxyethoxy)-3-methylpyridin-2-yl}methylthio]-1H-benzimidazole, reference compound] |  | 
